Data taken from publication PMC9516332 (Frontiers in Oncology, 2022).
Where two headings read alike, the source gives them in different places.

Legend:
[1] = system: 134 cancer cell lines; assay: Cell viability assay (ATPlite, 72 hours), IC50 on cancer cell line panel
[2] = system: AP-1060 (ETV6-NTRK3); assay: Cell viability assay; details: read-out: IC50 in cell proliferation assay
[3] = system: 134 cancer cell lines

IC50 ([1]; Homo sapiens, MOLT-4, read-out: IC50 in cell proliferation assay, MOLT-4 cell line): 0.701 µM
IC50 ([1]; Homo sapiens, MV4-11, read-out: IC50 in cell proliferation assay, MV4-11 cell line (FLT3 ITD)): 10.5 µM
IC50 ([1]; Homo sapiens, MeWo, read-out: IC50 in cell proliferation assay, MeWo cell line): > 31.6 µM
IC50 ([1]; Homo sapiens, NCCIT, read-out: IC50 in cell proliferation assay, NCC-IT cell line): 8.35 µM
IC50 ([1]; Homo sapiens, NCI-H82, read-out: IC50 in cell proliferation assay, cell line NCI-H82): 11.1 µM
IC50 ([1]; Homo sapiens, NCI-H460, read-out: IC50 in cell proliferation assay, NCI-H460 cell line): 7.11 µM
IC50 ([1]; Homo sapiens, NCI-H661, read-out: IC50 in cell proliferation assay, NCI-H661 cell line): 9.63 µM
IC50 ([1]; Homo sapiens, NCI-H716, read-out: IC50 in cell proliferation assay, cell line NCI-H716 (FGFR2-COL14A1)): 0.049 µM
IC50 ([1]; Homo sapiens, NCI-H1650, read-out: IC50 in cell proliferation assay, NCI-H1650 cell line (EGFR exon19del)): 18.1 µM
IC50 ([1]; Homo sapiens, NCI-H1975, read-out: IC50 in cell proliferation assay, NCI-H1975 cell line (EGFR p.L858R + p.T790M)): 1.49 µM
IC50 ([1]; Homo sapiens, NCI-H2228, read-out: IC50 in cell proliferation assay, NCI-H2228 cell line (EML4-ALK)): 4.04 µM
IC50 ([1]; Homo sapiens, OVCAR-3, read-out: IC50 in cell proliferation assay, cell line OVCAR-3): 6.11 µM
IC50 ([1]; Homo sapiens, PFSK-1, read-out: IC50 in cell proliferation assay, cell line PFSK-1): 0.52 µM
IC50 ([1]; Homo sapiens, RL95-2, read-out: IC50 in cell proliferation assay, cell line RL95-2 (EGFR p.A289V)): 18.3 µM
IC50 ([1]; Homo sapiens, RPMI-7951, read-out: IC50 in cell proliferation assay, cell line RPMI-7951 (BRAF p.V600E)): 10.1 µM
IC50 ([1]; Homo sapiens, RS4-11, read-out: IC50 in cell proliferation assay, cell line RS4;11): 4.25 µM
IC50 ([1]; Homo sapiens, Rec1, read-out: IC50 in cell proliferation assay, cell line REC-1): 3.14 µM
IC50 ([1]; Homo sapiens, SHP77, read-out: IC50 in cell proliferation assay, cell line SHP-77): > 31.6 µM
IC50 ([1]; Homo sapiens, SK-BR-3, read-out: IC50 in cell proliferation assay, cell line SK-BR-3 (ERBB2 amplification)): 0.676 µM
IC50 ([1]; Homo sapiens, SK-N-AS, read-out: IC50 in cell proliferation assay, cell line SK-N-AS): 0.065 µM
IC50 ([1]; Homo sapiens, SK-N-FI, read-out: IC50 in cell proliferation assay, cell line SK-N-FI): 3.1 µM
IC50 ([1]; Homo sapiens, SK-N-MC, read-out: IC50 in cell proliferation assay, cell line SK-N-MC): 2.6 µM
IC50 ([1]; Homo sapiens, SK-N-SH, read-out: IC50 in cell proliferation assay, cell line SK-N-SH (ALK p.F1174L)): 0.42 µM
IC50 ([1]; Homo sapiens, SNU-5, read-out: IC50 in cell proliferation assay, cell line SNU-5 (MET amplification)): 13.9 µM
IC50 ([1]; Homo sapiens, SNU-16, read-out: IC50 in cell proliferation assay, cell line SNU-16 (FGFR2 amplification)): > 31.6 µM
IC50 ([1]; Homo sapiens, SNU-C2B, read-out: IC50 in cell proliferation assay, cell line SNU-C2B (EGFR p.R165Q)): 7.04 µM
IC50 ([1]; Homo sapiens, SU-DHL-1, read-out: IC50 in cell proliferation assay, cell line SU-DHL-1 (NPM1-ALK)): 21.2 µM
IC50 ([1]; Homo sapiens, SU-DHL-6, read-out: IC50 in cell proliferation assay, cell line SU-DHL-6): 1.55 µM
IC50 ([1]; Homo sapiens, SUP-T1, read-out: IC50 in cell proliferation assay, cell line SUP-T1): 6.02 µM
IC50 ([1]; Homo sapiens, SW48, read-out: IC50 in cell proliferation assay, cell line SW48 (EGFR p.G719S)): 1.15 µM
IC50 ([1]; Homo sapiens, SW480, read-out: IC50 in cell proliferation assay, cell line SW480): 8.85 µM
IC50 ([1]; Homo sapiens, SW626, read-out: IC50 in cell proliferation assay, cell line SW626): 8.63 µM
IC50 ([1]; Homo sapiens, SW780, read-out: IC50 in cell proliferation assay, cell line SW780 (FGFR3-BAIAP2L1)): 9.85 µM
IC50 ([1]; Homo sapiens, SW837, read-out: IC50 in cell proliferation assay, cell line SW837): 21.9 µM
IC50 ([1]; Homo sapiens, SW872, read-out: IC50 in cell proliferation assay, cell line SW872 (BRAF p.V600E)): 18.8 µM
IC50 ([1]; Homo sapiens, SW900, read-out: IC50 in cell proliferation assay, cell line SW900): 4.43 µM
IC50 ([1]; Homo sapiens, SW948, read-out: IC50 in cell proliferation assay, cell line SW948): 3.3 µM
IC50 ([1]; Homo sapiens, SW982, read-out: IC50 in cell proliferation assay, cell line SW982 (BRAF p.V600E)): 22.6 µM
IC50 ([1]; Homo sapiens, SW-620, read-out: IC50 in cell proliferation assay, cell line SW620): 6.94 µM
IC50 ([1]; Homo sapiens, T98G, read-out: IC50 in cell proliferation assay, cell line T98G): 7.14 µM
IC50 ([1]; Homo sapiens, TCC-SUP, read-out: IC50 in cell proliferation assay, cell line TCCSUP): 1.1 µM
IC50 ([1]; Homo sapiens, THP-1, read-out: IC50 in cell proliferation assay, cell line THP-1): 0.117 µM
IC50 ([1]; Homo sapiens, U2OS, read-out: IC50 in cell proliferation assay, cell line U2OS): 19.3 µM
IC50 ([1]; Homo sapiens, U-87 MG, read-out: IC50 in cell proliferation assay, cell line U-87MG ATCC): 17.5 µM
IC50 ([1]; Homo sapiens, U-118-MG, read-out: IC50 in cell proliferation assay, cell line U-118MG): 16.6 µM
IC50 ([1]; Homo sapiens, UMUC3, read-out: IC50 in cell proliferation assay, cell line UM-UC-3): 17.1 µM
IC50 ([1]; Hs766T, read-out: IC50 in cell proliferation assay, Hs 766T cell line): 7.45 µM
IC50 ([1]; L-82, read-out: IC50 in cell proliferation assay, L-82 cell line (NPM1-ALK)): 20.5 µM
IC50 ([1]; Rh30, read-out: IC50 in cell proliferation assay, cell line Rh30): 3.91 µM
IC50 ([1]; read-out: IC50 in cell proliferation assay, 11-18 cell line (EGFR p.L858R)): 15.5 µM
IC50 ([1]; read-out: IC50 in cell proliferation assay, Hs 852.T cell line): 5.79 µM
IC50 ([1]; read-out: IC50 in cell proliferation assay, JAR cell line): 23.2 µM
IC50 ([1]; read-out: IC50 in cell proliferation assay, cell line 5637): 12.8 µM
IC50 ([1]; read-out: IC50 in cell proliferation assay, cell line A-388): 2.91 µM
IC50 ([1]; read-out: IC50 in cell proliferation assay, cell line DB): 23 µM
IC50 ([1]; read-out: IC50 in cell proliferation assay, cell line DEL (NPM1-ALK)): 27.8 µM
IC50 ([1]; read-out: IC50 in cell proliferation assay, cell line ES-2 (BRAF p.V600E)): > 31.6 µM
IC50 ([1]; read-out: IC50 in cell proliferation assay, cell line PA-1): 17.6 µM
IC50 ([1]; read-out: IC50 in cell proliferation assay, cell line PC-3): 22.7 µM
IC50 ([1]; read-out: IC50 in cell proliferation assay, cell line RD): 1.15 µM
IC50 ([1]; read-out: IC50 in cell proliferation assay, cell line RKO (BRAF p.V600E)): 11 µM
IC50 ([1]; read-out: IC50 in cell proliferation assay, cell line RL): 18.9 µM
IC50 ([1]; read-out: IC50 in cell proliferation assay, cell line RT-4 (FGFR3-TACC3)): 0.12 µM
IC50 ([1]; read-out: IC50 in cell proliferation assay, cell line SR (NPM1-ALK)): 10.9 µM
IC50 ([1]; read-out: IC50 in cell proliferation assay, cell line T24): 1.08 µM
IC50 ([1]; read-out: IC50 in cell proliferation assay, cell line TT (RET p.C634W)): > 31.6 µM
IC50 ([1]; read-out: IC50 in cell proliferation assay, cell line VA-ES-BJ): 5.92 µM
IC50 [3]: 0.534 µM
Compound: Cc1nc(NC(=O)N2CCC[C@H]2C(N)=O)sc1-c1ccnc(C(C)(C)C(F)(F)F)c1 [alpelisib]
IC50 [2]: 1.74 µM
